These results are taken from patent publication US11447504B2, “Macrocyclic chlorine substituted indole derivatives” (Bayer Aktiengesellschaft, priority 2017, dated 2022).

The target in one data set is BCL-XL (Homo sapiens (Human), UniProt Q07817). Nature of the data set: Protein-protein interaction assay BCL-XL/Bad BH3 peptide (BCL-XL Assay, TR-FRET). The format is binding. As to conditions: read-out: BCL-XL Assay IC50 (median). As for the experimental part: Assay 2 Protein-Protein Interaction Assay: BCL-XL/Bad BH3 Peptide (BCL-XL Assay)
The dose-dependent inhibition by the compounds described in this invention of the interaction between BCL-XL and the BH3 domain of Bad (both human) was determined using a steady state binding competition assay with time-resolved fluorescence energy transfer (TR-FRET) readout.
For that, 100-fold concentrated DMSO solutions were prepared by serial dilutions (1:3.4) of a 2 mM stock solution in a clear, 384-well microtiter plate (Greiner Bio-One, Frickenhausen, Germany). From there, 50 nl were transferred in a dark test plate (Greiner Bio-One, Frickenhausen, Germany). […] This was followed by a 10-minute incubation step at 22° C. for pre-equilibration of the putative complex between His-BCL-XL and the compounds.
The mixture was incubated in the dark for one hour at 22° C. and then overnight at 4° C. The formation of BCL-XL/Bad complexes was determined by measuring the resonance energy transfer of the anti-His- Eu-cryptate antibody to the streptavidin-XL665 present in the reaction.
(§1) The resulting data (ratio) were normalized, taking 0% inhibition as the mean value of control measurements (usually 32 data points) where all reagents were included. In this case 50 nl DMSO were used instead of compounds. […] IC50 values were determined by regression analysis based on a 4 parameter equation (minimum, maximum, IC50, Hill; Y=Max+(Min−Max)/(1+(X/IC50)^Hill) using the Screener Software (Genedata).

In a further data set the test system is MV-4-11. Nature of the data set: Antiproliferation assay 7, MV-4-11. The class given is cell-based. As to conditions: MV-4-11 cells, 72 hours, CellTiter-Glo; read-out: Antiproli MV-4-11 IC50 median. In short, it runs like this: (§2)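 CellTiter-Glo luminescence readout; 72 h compound exposure, 37° C, humidified. Day 0 reference plate read at plating for time-zero baseline.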
(In general: In ATP-based viability assays light output follows the ATP content of the culture.)

In data set [1] the test system is SUDHL10. Nature of the data set: Induction of cytotoxicity (Assay 6), SUDHL10. As to conditions: read-out: Cytotox SUDHL10 IC50 (median); SUDHL10 cells, 5 hours, CellTiter-Glo.
The target in data set [2] is SUDHL5. Nature of the data set: Induction of caspase-3/7 activity (Assay 4), SUDHL5. As to conditions: SUDHL5 cells, 3 hours, Caspase-Glo 3/7; read-out: Caspase SUDHL5 EC50 (median). The class given is cell-based. In short, it runs like this: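 DLBCL cells treated with compounds for 3 hours at 37° C. Caspase-3/7 activity measured by Caspase-Glo 3/7 luminescence, with medium-only background subtracted.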

The target in data set [3] is T1, MCL-1 (Homo sapiens (Human), UniProt Q07820, K194A/K197A/R201A). Nature of the data set: Protein-protein interaction assay MCL-1/Noxa BH3 peptide (MCL-1 Assay, TR-FRET). The class given is binding. As to conditions: read-out: MCL-1 Assay IC50 (median). (In general: Time-resolved FRET reads energy transfer from a long-lived donor to a nearby acceptor.)
Data set [4] has as its system SUDHL10. Nature of the data set: Antiproliferation assay 7, SUDHL10. The class given is cell-based. As to conditions: SUDHL10 cells, 72 hours, CellTiter-Glo; read-out: Antiproli SUDHL10 IC50 (median). As for the experimental part: (§3) Assessment of the Anti-Proliferative Effect of Compounds in Different Cell Lines
(§4) The impact of compounds on the proliferation of different cell lines was assessed using the CellTiter-Glo® Luminescent Cell Viability reagent from Promega (G7573).
(§5) In parallel, cells were plated in a reference (day 0) plate for time zero determination.
(§6) Rim wells were excluded. The cells were incubated for 72 hours in a humidified incubator at 37° C. The day 0 plate was measured by adding 30 μL/well of CTG solution (CellTiter-Glo® Luminescent Cell Viability reagent, Promega G7573) to time zero wells in the reference plate followed by a 10 minutes incubation and luminescence reading at 0.1 ms. using the PHERAstar FS microplate reader (BMG Labtech).
(§7) After 72 hours incubation, the treated plates were measured in the same way as the day 0 plate mentioned above.

For data set [5], the system named is SUDHL5. Nature of the data set: Induction of cytotoxicity (Assay 6), SUDHL5. As to conditions: read-out: Cytotox SUDHL5 IC50 (median); SUDHL5 cells, 5 hours, CellTiter-Glo.
Procedure: (§8) Assay 6 Induction of Cytotoxicity Upon Treatment of Cells with Selected Compounds
(§9) Therefore, cytotoxicity assays were run in parallel in SUDHL5 and SUDHL10 cells.
(§10) The different cell lines were plated in culture medium (RPMI 1640 [GIBCO #22400-089]supplemented with 10% Fetal Bovine Serum) at a density of 3,300 cells in 30 μL/well in a sterile, solid black, flat bottom, polystyrene, TC-treated 384-well microplate (Corning #3571) using Multidrop Combi Reagent Dispenser. As a control, medium without cells was also added to the plate. Cells were incubated in a humidified incubator at 37° C. overnight. […] Rim wells were excluded. The cells were incubated for 5 hours in a humidified incubator at 37° C. After this incubation, 30 μL of CellTiter-Glo® Luminescent Cell Viability reagent (Promega, G7573) was added to each well using the Multidrop Combi Reagent Dispenser, followed by 15 minutes incubation on a shaker at room temperature. Finally, luminescence was read at 0.1 ms, with a gain of 3000 using the PHERAstar FS microplate reader (BMG Labtech).
Data set [6] concerns the target SUDHL10. Nature of the data set: Induction of caspase-3/7 activity (Assay 4), SUDHL10. The class given is cell-based. As to conditions: SUDHL10 cells, 3 hours, Caspase-Glo 3/7; read-out: Caspase SUDHL10 EC50 (median). In short, it runs like this: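 Luminescent Caspase-Glo 3/7 read-out after a 3 h, 37 °C compound exposure of the DLBCL line SUDHL10. Values are background-corrected using medium-only wells.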

A further data set has as its target BCL-2 (Homo sapiens (Human), UniProt P10415). Nature of the data set: Protein-protein interaction assay BCL-2/Bad BH3 peptide (BCL-2 Assay, TR-FRET). The class given is binding. As to conditions: read-out: BCL-2 Assay IC50 (median). The procedure:
The dose-dependent inhibition by the compounds described in this invention of the interaction between BCL-2 and the BH3 domain of Bad (both human) was determined using a steady state binding competition assay with time-resolved fluorescence energy transfer (TR-FRET) readout.
For that, 100-fold concentrated DMSO solutions were prepared by serial dilutions (1:3.4) of a 2 mM stock solution in a clear, 384-well microtiter plate (Greiner Bio-One, Frickenhausen, Germany). From there, 50 nl were transferred in a dark test plate (Greiner Bio-One, Frickenhausen, Germany). […] This was followed by a 10-minute incubation step at 22° C. for pre-equilibration of the putative complex between His-BCL-2 and the compounds.
The mixture was incubated in the dark for one hour at 22° C. and then overnight at 4° C.
as §1

The test system of another data set is SK-BR-3. Nature of the data set: Antiproliferation assay 7, SK-BR-3. As to conditions: SK-BR-3 cells, 72 hours, CellTiter-Glo; read-out: Antiproli SK-BR-3 IC50 median. The class given is cell-based. As for the experimental part:
as §3, §4, §5, §6, §7

Data set [7] deals with T1, MCL-1. Nature of the data set: Protein-compound interaction assay (SPR assay 8). The class given is binding. As to conditions: immobilized MBP-MCL-1, 25° C. The source says:
Assay 8 Protein-Compound Interaction Assay (SPR Assay)
The ability of the compounds described in this invention to bind to MCL-1 may be determined using surface plasmon resonance (SPR). This allows for the quantification of binding in terms of the equilibrium dissociation constant (KD [M]), as well as association and dissociation rate constants (kon [1/M 1/s] and koff [1/s], respectively). The measurements may be performed using Biacore® T200 or Biacore® S200 instruments (GE Healthcare).
MBP-MCL-1 was diluted in 1×PBS-P+ (GE Healthcare) and injected on the activated chip surface. Subsequently, a solution of 1 M ethanolamine-HCl (GE Healthcare) was injected to block unreacted groups, resulting in approximately 400-2500 response units (RU) of immobilized protein. A reference surface was generated by treatment with NHS-EDC and ethanolamine-HCl.
The double-referenced sensorgrams were fit to a simple reversible Langmuir 1:1 reaction mechanism as implemented in the Biacore® T200 and S200 evaluation software (T200 evaluation software version 2.0 and S200 evaluation software version 1.0, GE Healthcare).
For orientation: Surface plasmon resonance follows binding to a sensor surface in real time, without labels.

Data set [8] deals with SUDHL5. Nature of the data set: Antiproliferation assay 7, SUDHL5. The class given is cell-based. As to conditions: SUDHL5 cells, 72 hours, CellTiter-Glo; read-out: Antiproli SUDHL5 IC50 (median). In short, it runs like this:
as §2

The test system of a further data set is AMO-1. Nature of the data set: Antiproliferation assay 7, AMO-1. The format is cell-based. As to conditions: AMO-1 cells, 72 hours, CellTiter-Glo; read-out: Antiproli AMO-1 IC50 median. In outline:
as §2

The subject of data set [9] is SUDHL10.
Data set [10] relates to SUDHL5.
Procedure: as §8, §9, §10
The subject of a further data set is HMC-1-8. Nature of the data set: Antiproliferation assay 7, HMC-1-8. The class given is cell-based. As to conditions: HMC-1-8 cells, 72 hours, CellTiter-Glo; read-out: Antiproli HMC-1-8 IC50 median. In outline:
as §2

Where two headings read alike, the source gives them in different places.

T1 sequence (Q07820 whole entry K194A/K197A/R201A, looked up): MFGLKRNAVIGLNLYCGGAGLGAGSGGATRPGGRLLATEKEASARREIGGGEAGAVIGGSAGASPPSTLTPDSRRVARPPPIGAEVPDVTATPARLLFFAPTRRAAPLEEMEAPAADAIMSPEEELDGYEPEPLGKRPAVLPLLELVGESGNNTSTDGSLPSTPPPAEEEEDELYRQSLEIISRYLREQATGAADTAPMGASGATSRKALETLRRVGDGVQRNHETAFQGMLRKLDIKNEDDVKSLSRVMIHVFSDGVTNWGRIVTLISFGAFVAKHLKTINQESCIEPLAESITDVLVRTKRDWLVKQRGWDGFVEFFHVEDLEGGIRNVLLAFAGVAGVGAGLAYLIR
Chain of BCL-XL (Q07817 other isoform, or with tags, fused parts or gaps): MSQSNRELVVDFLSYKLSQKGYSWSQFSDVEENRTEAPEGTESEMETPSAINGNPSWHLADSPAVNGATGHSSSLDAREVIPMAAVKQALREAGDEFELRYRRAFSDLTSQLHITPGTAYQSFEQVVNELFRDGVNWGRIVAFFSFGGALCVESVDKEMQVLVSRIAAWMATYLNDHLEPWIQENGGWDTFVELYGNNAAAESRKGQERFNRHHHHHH
Chain of BCL-2 (P10415 other isoform, or with tags, fused parts or gaps): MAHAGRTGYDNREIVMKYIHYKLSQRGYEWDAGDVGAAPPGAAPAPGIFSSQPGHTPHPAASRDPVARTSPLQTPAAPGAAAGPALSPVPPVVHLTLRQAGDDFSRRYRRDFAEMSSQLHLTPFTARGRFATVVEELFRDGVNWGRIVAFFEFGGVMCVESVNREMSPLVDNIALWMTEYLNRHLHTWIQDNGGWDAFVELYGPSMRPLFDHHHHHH

With “4-chloro-3-ethyl-1-[2-(morpholin-4-yl)ethyl]-7-[3-(naphthalen-1-yloxy)propyl]-1,10,11,12,13,15-hexahydropyrazolo[4′,3′:9,10][1,6]oxazacycloundecino[8,7,6-hi]indole-8-carboxylic acid-N-ethylethanamine Salt (Enantiomer 1) [Example 9]”, the IC50 was above 20000 nM at BCL-XL; 823 nM with MV-4-11; 340 nM in the data set on SUDHL10 [1]; 0.47 nM on MCL-1 [3]; 270 nM in the data set with SUDHL10 [4]; 290 nM in the data set on SUDHL5 [5]. Moreover, the IC50 is above 20000 nM at BCL-2, 1080 nM in the data set with SK-BR-3, 370 nM with SUDHL5 [8] and 874 nM in the data set on AMO-1. Also, the EC50 at SUDHL5 [2] worked out at 270 nM; at SUDHL10 [6], 330 nM. Also, the “koff (geo mean)” value at MCL-1 [7] amounted to 0.0096 s⁻¹. Further, the “kon (geo mean)” value at MCL-1 [7] is 8.7E6 1/M 1/s. Moreover, the Kd at MCL-1 [7] (read-out: KD (geo mean)) was 1.1 nM.

Take `Cc1nn(C)c2c1-c1cccc3c(CCCOc4cccc5ccccc45)c(C(=O)O)n(c13)CCCCN2Cc1ccccc1` [Example 69, (rac)-8-benzyl-9,11-dimethyl-1-[3-(1-naphthyloxy)propyl]-4,5,6,7,8,9-hexahydropyrazolo[4′,3′:4,5][1,6]diazecino[3,2,1-hi]indole-2-carboxylic Acid]: the 50% effective concentration (EC50) is above 33000 nM at SUDHL5 [2] and 22000 nM at SUDHL10 [6]. The IC50 was 350 nM at MCL-1 [3]; 6300 nM with SUDHL10 [4]; 32000 nM with SUDHL10 [9]; 14000 nM in the data set on SUDHL5 [8]; 21000 nM in the data set with SUDHL5 [10].

In the case of `Cc1nn(C)c2c1-c1cccc3c(CCCOc4cccc5ccccc45)c(C(=O)O)n(c13)CCCCN2` [Example 70, (rac)-9,11-dimethyl-1-[3-(1-naphthyloxy)propyl]-4,5,6,7,8,9-hexahydropyrazolo[4′,3′:4,5][1,6]diazecino[3,2,1-hi]indole-2-carboxylic Acid], the half-maximal effective concentration (EC50) at SUDHL5 [2] is above 33000 nM; on SUDHL10 [6], 29000 nM. In addition, the IC50 on MCL-1 [3] was 43 nM; with SUDHL10 [4], 15000 nM; in the data set on SUDHL10 [9], above 33000 nM; in the data set on SUDHL5 [8], above 33000 nM; in the data set with SUDHL5 [10] it was above 33000 nM.

Regarding “(rac)-4-chloro-3-ethyl-1-[2-(morpholin-4-yl)ethyl]-7-[3-(naphthalen-1-yloxy)propyl]-1,10,11,12,13,15-hexahydropyrazolo[4′,3′:9,10][1,6]oxazacycloundecino[8,7,6-hi]indole-8-carboxylic Acid [Example 8]”, the IC50 was determined as 1100 nM in the data set on MV-4-11; 0.89 nM on MCL-1 [3]; 450 nM in the data set with SUDHL10 [9]; 3000 nM in the data set on SK-BR-3; 470 nM in the data set with SUDHL5 [8]; 350 nM in the data set on SUDHL5 [10]. Besides, the IC50 in the data set on AMO-1 came out at 1180 nM. Moreover, the results for the concentration giving a half-maximal response (EC50) at SUDHL5 [2] and on SUDHL10 [6] were 290 nM and 360 nM, respectively.

As to “(rac)-4-chloro-12,12-difluoro-2,3-dimethyl-7-{3-[(naphthalen-1-yl)oxy]propyl}-2,10,11,12,13,15-hexahydropyrazolo[4′,3′:9,10][1,6]oxazacycloundecino[8,7,6-hi]indole-8-carboxylic Acid [Example 55]”, the IC50 on BCL-XL is above 20000 nM; on MCL-1 [3], 2.3 nM; in the data set on SUDHL10 [9], 2000 nM; on BCL-2 it was 18800 nM; in the data set on SUDHL5 [8], 620 nM; in the data set on SUDHL5 [10], 840 nM. The IC50 in the data set on HMC-1-8 amounted to 5750 nM; in the data set on AMO-1, 1710 nM. Besides, the EC50 on SUDHL5 [2] was determined as 510 nM; at SUDHL10 [6] it was 1500 nM.

With “(rac)-4-chloro-14-(2,2-difluoroethyl)-3-ethyl-7-{3-[(6-fluoronaphthalen-1-yl)oxy]propyl}-2-methyl-10,11,12,13,14,15-hexahydro-2H-pyrazolo[3′,4′:8,9][1,6]diazacycloundecino[10,11,1-hi]indole-8-carboxylic Acid [Example 62]”, the EC50 at SUDHL5 [2] came out at 270 nM. Further, the IC50 at MCL-1 [3] amounted to 2.7 nM; in the data set with SUDHL5 [10], 330 nM.

As a reminder, the IC50 is the concentration that inhibits the measured activity by half. As usually defined, the EC50 is the concentration needed to bring the measured effect to its halfway point. For orientation: Kd means the constant that tells how readily two partners part at equilibrium.
